Values quoted from earlier work in US20120040944A1 (APEX LABORATORIES PRIVATE LIMITED, priority 2009, published 2012).

Tests used:
CYP3A4 isozyme = target: T1, CYP3A4 isozyme (Homo sapiens, UniProt P08684); settings: liver
T1 construct: host or cells: liver

[1] = not given; remark: listed apart in the source

T1 sequence (P08684 whole entry): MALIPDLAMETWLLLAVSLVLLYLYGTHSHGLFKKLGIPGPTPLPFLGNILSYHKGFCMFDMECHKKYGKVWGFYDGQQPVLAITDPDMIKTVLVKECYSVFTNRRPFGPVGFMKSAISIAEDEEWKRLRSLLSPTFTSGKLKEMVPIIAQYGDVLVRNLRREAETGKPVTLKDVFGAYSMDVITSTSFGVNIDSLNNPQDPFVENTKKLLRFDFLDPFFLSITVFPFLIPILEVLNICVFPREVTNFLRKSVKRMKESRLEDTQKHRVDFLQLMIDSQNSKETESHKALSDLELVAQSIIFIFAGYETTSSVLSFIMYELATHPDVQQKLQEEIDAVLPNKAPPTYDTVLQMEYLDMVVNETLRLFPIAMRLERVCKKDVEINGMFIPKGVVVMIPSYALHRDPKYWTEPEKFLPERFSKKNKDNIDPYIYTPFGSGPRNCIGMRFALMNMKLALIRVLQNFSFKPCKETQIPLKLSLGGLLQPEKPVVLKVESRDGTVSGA

- Terminal t½ (in vivo): about 5 h
- bioavailability (inhaled dose compared with IV administration): less than 1%
- Excretion in the feces (up to 7 days): 74%
- Excretion in the urine (up to 7 days): 8%
- solubility in ethyl alcohol ([1]; ethyl alcohol): moderately soluble
- solubility in octanol ([1]; octanol): slightly soluble
- solubility in water ([1]; water): practically insoluble
Compound: C[C@@H]1C[C@H]2[C@@H]3CCC4=CC(=O)C=C[C@]4(C)[C@@]3(Cl)[C@@H](O)C[C@]2(C)[C@@]1(OC(=O)c1ccco1)C(=O)CCl [Mometasone Furoate, 9α,21-dichloro-11β,17-dihydroxy-16α-methylpregna-1,4-diene-3,20-dione 17-(2-furoate)]
- metabolism (CYP3A4 isozyme): primarily and extensively metabolized in the liver by the CYP3A4 isozyme
